According to patent US20030023101A1, “Method for production of maleic anhydride” (priority 2001, published 2003):

Legend:
[1] = 20° C., normal pressure (1013 hPa); Chemical Handbook (Maruzen), Beilstein Online; cited from earlier work
[2] = Maximum dissolving concentration of maleic acid in the solvent (Referential Example 2); type: physicochemical; conditions: maleic acid as solute in 80 g solvent, 20° C., insoluble = residue even at 0.01 g
Method: (§1) In a tightly closable glass vessel measuring 100 ml in inner volume and furnished with a lid, 80 g of a given solvent kept at a temperature of 20° C. was placed and stirred with a stirrer and meanwhile maleic acid or fumaric acid of the special reagent grade as defined in the paragraph covering the determination of maximum dissolution concentration was added to the stirred solvent. The state of solution consequently assumed was visually confirmed. When the solute left any residue behind in the solution even after one hour's stirring, the sample was reported as insoluble. When the residue of the solute was found, the confirmation of the maximum dissolving concentration mentioned above was repeated, with the quantity of addition per round decreased. The minimum quantity of addition was set at 0.01 g. Thus, the maximum quantity of dropwise addition (weight of solute) which was recognized to have given rise to no residue of elute was determined and computed as the maximum dissolution concentration in 80 g of a given solvent. Specifically, the magnitude found by the following formula,
(§2) Maximum dissolving concentration (% by weight)={Solute/(Solute+Solvent)}×100
(§3) is the maximum dissolving concentration contemplated by this invention. When the elute left any residue behind in the solution even at the minimum quantity of dropwise addition of 0.01 g ([…]), the sample was reported as insoluble. Incidentally, the maximum dissolution concentration was measured at a solution temperature of 20° C.

[3] = Maximum dissolving concentration of organic solvent in water (Referential Example 1); type: physicochemical; conditions: solvent as solute in 80 g purified water, 20° C., visual observation
Method: One species of organic solvent or a mixture of two or more species of solvent to be used in this invention was selected by the following method. In a tightly closable glass vessel measuring 100 ml in inner volume and furnished with a lid, 80 g of purified water kept at a temperature of 20° C. was placed and stirred with a stirrer and meanwhile a given organic solvent or solvent mixture was added dropwise to the stirred water. The state of solution consequently assumed after one hour's standing was visually observed. When any residue of the solute was found in the solution, the confirmation of the solubility mentioned above was repeated, with the quantity of dropwise addition per round decreased. The minimum quantity of the organic solvent or the solvent mixture as the solute to be used for the dropwise addition was set at 0.02 g. […] Specifically, the magnitude found by the following formula,
as §2
is the maximum dissolving concentration contemplated by this invention. […] The present example concerns computation of the maximum dissolving concentration of a given solute in 80 g of a solvent in accordance with the formula mentioned above. The maximum dissolving concentration was determined at a solution temperature of 20° C. Incidentally, when two or more species of organic solvent are mixed and used in the distillation for azeotropic dehydration, the maximum dissolving concentration of the mixture is determined by the method described above.

[4] = Maximum dissolving concentration of fumaric acid in the solvent (Referential Example 2); type: physicochemical; conditions: fumaric acid as solute in 80 g solvent, 20° C., insoluble = residue even at 0.01 g
Method: as §1, §2, §3

CCC(=O)CC [3-pentanone]
Maximum dissolving concentration of the azeotropic solvent (1) in water [1]: 4.6 % by weight

CC(C)C(=O)C(C)C [DIPK, diisopropylketone]
Maximum dissolving concentration in solvent, Maleic acid [2]: 1.22 % by weight
Maximum dissolving concentration in water [3]: 0.41 % by weight
Maximum dissolving concentration of the azeotropic solvent (1) in water [1]: 0.43 % by weight
Maximum dissolving concentration in solvent, Fumaric acid [4]: 0.02 % by weight

C=CCOC(C)=O [allyl acetate]
Maximum dissolving concentration of the azeotropic solvent (1) in water [1]: 2.8 % by weight

CC(=O)CC(C)C [MIBK, methyl isobutylketone]
Maximum dissolving concentration in solvent, Maleic acid [2]: 4.14 % by weight
Maximum dissolving concentration in water [3]: 1.85 % by weight
Maximum dissolving concentration of the azeotropic solvent (1) in water [1]: 1.91 % by weight
Maximum dissolving concentration in solvent, Fumaric acid [4]: 0.14 % by weight

CCCCCC(C)=O [2-heptanone]
Maximum dissolving concentration of the azeotropic solvent (1) in water [1]: 0.44 % by weight

CCCCC(CC)CO (stereo not drawn) [2-ethyl-1-hexnol]
Maximum dissolving concentration of the azeotropic solvent (1) in water [1]: 0.10 % by weight

CCCCCOC(C)=O [amyl acetate]
Maximum dissolving concentration of the azeotropic solvent (1) in water [1]: 0.25 % by weight

CCCCC(C)=O [2-hexanone]
Maximum dissolving concentration of the azeotropic solvent (1) in water [1]: 1.75 % by weight

Cc1ccccc1C [o-Xylene, o-xylene]
Maximum dissolving concentration in solvent, Maleic acid [2]: Insoluble
Maximum dissolving concentration in solvent, Maleic acid ([2]; listed as o-xylene): did not dissolve
Maximum dissolving concentration in water [3]: 0.02 % by weight
Maximum dissolving concentration in water ([3]; listed as o-xylene): low solubility in water
Maximum dissolving concentration in solvent, Fumaric acid [4]: Insoluble
Maximum dissolving concentration in solvent, Fumaric acid ([4]; listed as o-xylene): did not dissolve

CCCC(=O)CC [3-hexnaone]
Maximum dissolving concentration of the azeotropic solvent (1) in water [1]: 1.57 % by weight

CC(C)CC(=O)CC(C)C [DIBK, diisobutyl ketone]
Maximum dissolving concentration in solvent, Maleic acid [2]: 0.62 % by weight
Maximum dissolving concentration in water [3]: 0.05 % by weight
Maximum dissolving concentration in solvent, Fumaric acid [4]: Insoluble
